Assay results published in US20120064176A1, “COMPOSITION FOR PREVENTING AND TREATING FATTY LIVER” (National Chung Hsing University, priority 2008, published 2012).

Test system: C57BL/6JNarl mice
Experiment: Hepatic triglycerides after 7 weeks of lactoferrin, chromium or lactoferrin+chromium in high-fat-diet mice
Format: in vivo
Details: 10 mice in each group
Procedure: Male C57BL/6JNarl mice (n=70) fed with high fat diet (high-fat Rodent TestDiet, PMI International Inc., MO, USA; 67% of calories provided by fat), age 8 weeks, are randomly divided into the control group, the low-dose lactoferrin group (NZMP lactoferrin, New Zealand, 40 mg/kg BW/day), the high-dose lactoferrin group (80 mg/kg BW/day), the low-dose chromium group (CrCl3·6H2O, Sigma, Cr^+3 40 μg/kg BW/day), the high dose chromium group (Cr^+3 80 μg/kg BW/day), the low-dose lactoferrin+chromium group (lactoferrin 40 mg/kg BW/day+Cr^+3 40 μg/kg BW/day), and the high-dose lactoferrin+chromium group (lactoferrin 80 mg/kg BW/day+Cr^+3 80 μg/kg BW/day) (10 mice in each group). After supplementation for 7 weeks, the C57BL/6JNarl mice are sacrificed and their livers are harvested. Then, the level of hepatic triglycerides is analyzed. […] However, no significant difference between the other groups is found.

## O.O.O.O.O.O.[Cl][Cr]([Cl])[Cl] [chromium, CrCl3·6H2O]
High-dose: lactoferrin 80 mg/kg BW/day and/or Cr+3 80 μg/kg BW/day
  Hepatic triglycerides, High-dose: 19.0 ± 5.7 μ mol/g liver
Low-dose: lactoferrin 40 mg/kg BW/day and/or Cr+3 40 μg/kg BW/day
  Hepatic triglycerides, Low-dose: 18.4 ± 8.1 μ mol/g liver
